Inconclusive results are not listed.
System: HUVEC viability, CellTiter-Glo ATP luminescence, 8-48 h
Assay: cytotoxicity in primary human umbilical endothelium – cell-based, CellTiter-Glo ATP luminescence, 8/24/48 h, dry powder, cytotoxicity control for HRAS target identification, dose response (AID 720604)

Row | SMILES | AC50 (measured here: 8 h treatment) | AC50 (measured here: 24 h treatment) | AC50 (measured here: 48 h treatment)
1 | COc1ccc(N(C(=O)CCl)C(C(=O)NCCc2ccccc2)c2cccs2)cc1Cl (stereo not given) | 25.4 µM | 5.53 µM | 5.1 µM
2 | CC(C)(C)OC(=O)NCCOCCOCCOc1ccc(N(C(=O)CCl)C(C(=O)NCCc2ccccc2)c2cccs2)cc1Cl (stereo not given) | – | 7.15 µM | 7.2 µM
